Experimental data published in patent publication US12636292B2, “Method and composition for reversing and/or inhibiting atherosclerosis” (ARJIL BIOTECH HOLDING COMPANY LIMITED, priority 2019, dated 2026).

Experiments:
RAW264.7 macrophages = assay: Cellular migration assay (transwell); format: cell-based; details: 48 h
Protocol: RAW264.7 macrophage was purchased from the Hsin-Chu Food Industry Development Institute Cell Bank (FIRDI, Cat no: BCRC-60001). The cell culture medium contains high-glucose DMEM (Gibco BRL, Grand Island, NY, USA), 10% FBS, 1.5 g/L sodium bicarbonate, 0.11 g/L sodium pyruvate, 4 mM L-glutamine, 100 U/mL penicillin, and 100 μg/mL streptomycin. These cells were maintained in a humidified incubator at 37° C. and 5% CO2. After collecting the cells with a spatula, for each 24-well culture plate, all cell densities were adjusted to 1×10^5 cells per well for migration assays.
We used a cellular migration assay to examine the cellular migration ability of RAW 264.7 macrophages toward vascular endothelial cells with high-fat damage. The cellular migration assay has been clearly described in a previous report (Hwang et al., 2021). Transwells (Corning, New York, NY, USA) with 8.0 μm pore size were used in this experiment for cell migration assays. In total, 1×10^5 RAW264.7 macrophage, labeled with the red fluorescent dye of 1,1′-Dioctadecyl-6,6′-Di(4-Sulfophenyl) (SP-Di1C18(3)), was added to the upper layer of transwell after 48 h. […] Images were taken with a fluorescence microscope (Leica Microsystems, Wetzlar, Germany), and analysis was performed using Leica Application Suite software (LAS) V4.12 s (Leica Microsystems, Wetzlar, Germany) after 48 h of culture.

CD36 = assay: Immunofluorescence staining of CD36 in vascular endothelial cells; format: cell-based, mouse; details: 20 μg/mL with 0.75 mM palm acid oil
Protocol: (§1) Vascular endothelial cells (SVEC4-10) were purchased from the Cell Bank of Hsin-Chu Food Industry Development Institute (FIRDI, Cat no: BCRC-60220). SVEC4-10 cells were cultured in high-glucose DMEM (Dulbecco's Modified Eagle Medium) (Gibco BRL, Grand Island, NY, USA) and supplemented with 10% Fetal Bovine Serum (FBS) (HyClone, Logan, UT, USA), 1.5 g/L sodium bicarbonate, 0.11 g/L sodium pyruvate, 4 mM L-glutamine, 100 U/mL penicillin, and 100 μg/mL streptomycin (Gibco BRL, Grand Island, NY, USA).
(§2) These cells were grown in a culture medium and maintained in a humidified incubator at 37° C. and 5% CO2. […]
(§3) We used immunofluorescence staining to examine expressions of KLF4 and CD36. […] Note that this step needs to be protected from light at the beginning Nuclei were stained with 1 μg/mL diamino-2-phenilindole (DAPI) (D3286, Sigma-Aldrich Co., St. Louis, MO, USA) for 10 min at room temperature after washing three times with PBS and mounted with a fluorescent protectant-containing adhesive to reduce fluorescence decay. Fluorescent images were obtained using a Leica DM IRB inverted fluorescence microscope (Leica Microsystems, Wetzlar, Germany), and analysis was performed using Leica Application Suite software (LAS) V4.12 s (Leica Microsystems, Wetzlar, Germany). The Rhodamine fluorescence-labeled cytoskeleton was visualized at 565 nm by exciting cells at 540 nm. […]

VCAM-1 = assay: Immunofluorescence staining of VCAM-1 in vascular endothelial cells; format: cell-based, mouse; details: 20 μg/mL with 0.75 mM palm acid oil; p<0.01
IL-1β [1] = assay: ELISA of IL-1β in RAW264.7 macrophages; format: cell-based, mouse; details: 20 μg/mL with 0.75 mM palm acid oil (272.3 without)
TNF-α [2] = assay: ELISA of TNF-α in RAW264.7 macrophages; format: cell-based, mouse; details: 20 μg/mL with 0.75 mM palm acid oil (856.9 without)
[3] = test system: vascular endothelial cells; assay: Cellular lipid deposition assay (oil red O staining); format: cell-based; details: different concentrations of antcin K
Protocol: We used oil red O staining which was clearly described in a previous report (Luo et al., 2021) to examine cellular lipid deposition. RAW264.7 macrophages were fixed with 2% paraformaldehyde for 10-15 min at room temperature, washed three times with phosphate-buffered saline (PBS) and twice with ddH2O, and stained with 5% oil red O dye for 15 min at room temperature, then the supernatant was discarded. Vascular endothelial cells and RAW264.7 macrophages were infiltrated with 60% isopropanol, washed twice with ddH2O, and photographed with an optical microscope (Olympus BH2 system light microscope, Olympus Corporation, Tokyo, Japan).

[4] = test system: SVEC4-10 vascular endothelial cells; assay: MTT cell viability assay; format: cell-based; details: for cell viability of vascular endothelial cells: sham = 100%
Protocol: as §1
(§4) These cells were grown in a culture medium and maintained in a humidified incubator at 37° C. and 5% CO2. Vascular endothelial cells were digested with 0.25% trypsin (Gibco BRL, Grand Island, NY, USA) for approximately 1 min until most cells detached. All cell densities were adjusted to 1×10^5 cells per well for each 24-well culture plate. After vascular endothelial cells were cultured for 24 h, in the hyperlipidemia group, 0.75 mM palm acid oil (CAS 57-10-3-800508; Sigma-Aldrich Co., St. Louis, MO, USA) (Oh et al., 2018) was added, and 10, 20, and 50 μg/mL of antcin K in each experiment was individually added.
We used a 3-(4,5-Dimethylthiazol-2-yl)-2,5-diphenyltetrazolium bromide (MTT) assay to examine the cell viability of antcin K in this study. A total of 1×10^5 cells/mL SVEC4-10 cells were added to a 24-well plate, and 0.5 mM palm acid oil (Sigma-Aldrich Co., St. Louis, MO, USA) was partially added, and 10, 20, and 50 μg/mL of test samples were added to SVEC4-10 cells, followed by culturing within 24 h. After adding 0.5 mg/mL of MTT solution (M5655, Sigma-Aldrich Co., St. Louis, MO, USA) and culturing for 2 h, the supernatant was removed, and 100 μL/well of DMSO organic solvent was added, followed by a 5 min shaking and then absorbance measurement at 570 nm.

[5] = DPPH free radical scavenging assay; format: biochemical
Protocol: The antioxidant capacity of antcin K was examined by 1,1-diphenyl-2-trinitrophenylhydrazyl (DPPH) assay in this study. We formulated DPPH (D9132, Sigma-Aldrich Co., St. Louis, MO, USA) at a concentration of 1.5 mM per 1 mL and added 9 mL of methanol (322415, Sigma-Aldrich Co., St. Louis, MO, USA) to the mixed solution. The 100 μL of DPPH and 100 μL of 10, 20, and 50 μg/mL of test samples were taken, shaken, and mixed evenly, then placed at room temperature for 30 min in the dark. After that, the absorbance was measured at 517 nm using an ultraviolet/visible light spectrometer (Microplate Spectrophotometer, uQuant, Biotek Instruments, Inc., Winooski, VT, USA).
Different concentrations of test samples were prepared and compared with the standard L-Ascorbic acid (L-AA) (A5960, Sigma-Aldrich Co., St. Louis, MO, USA). Based on the reduction percentage of the absorbance value observed in the control group, the antioxidant capacity of each test sample to scavenge DPPH free radicals can be judged. After that, the test sample with the most robust ability to scavenge DPPH free radicals was selected and repeated three times. The formula is as follows: DPPH free radical scavenging rate (%)=(1−(absorption value of experimental group/absorption value of control group))×100.

IL-1β [6] = assay: ELISA of IL-1β in palm acid oil-treated vascular endothelial cells; format: cell-based, mouse
Protocol: as §1, §4
(§5) We analyzed the content of inflammatory cytokines by ELISA. The supernatant of SVEC4-10 cells with palm acid oil hyperlipidemia treatment was collected after 24 h of culture and added to a 96-well micro-well plate (Thermo Scientific Nunc®, Nunc AS, Copenhagen, Denmark). An amount of 100 μL/well of carbonate buffer containing antibodies of 32 ng/mL purified rat anti-mouse TNF-α (88-7324; Invitrogen, Carlsbad, CA, USA) or 32 ng/mL purified rat anti-mouse IL-1_(88-7013; Invitrogen, Carlsbad, CA, USA) was added to each well and kept at 4° C. overnight. After that, we washed three times with 0.05% phosphate-buffered saline with Tween 20 (PBST) buffer to remove unbound monoclonal antibodies. Then, we added 200 μL/well of blocking solution to reduce nonspecific binding. […] The reaction was terminated with 2% H2SO4, and the absorbance at 450-570 nm was measured.

KLF4 = assay: Immunofluorescence staining of KLF4 in vascular endothelial cells; format: cell-based, mouse; details: 20 μg/mL with 0.75 mM palm acid oil; p<0.01
Protocol: as §1, §2, §3

TNF-α [7] = assay: ELISA of TNF-α in palm acid oil-treated vascular endothelial cells; format: cell-based, mouse
Protocol: as §1, §4, §5

[8] = Blood chemistry analysis (serum triglyceride, total cholesterol) in hypercholesterolemic rabbits; format: in vivo, rabbit; details: week 12; rabbits on 0.5% cholesterol chow plus 1% extract, 10 mg/kg pure compound or 10 mg/kg lovastatin; vs high fat diet group
Protocol: (§6) 2 to 3 kg male, New Zealand White rabbits were individually caged and housed in temperature and humidity-controlled rooms. Light-dark cycles were 12 h each. After several days of acclimation, the animals were sequentially assigned to six feeding groups: standard rabbit chow (ND), standard rabbit chow containing 0.5% cholesterol (HF), standard rabbit chow containing both 0.5% cholesterol and 10 mg/kg Lovastatin (L), standard rabbit chow containing both 0.5% cholesterol and 1% ARH003 (ARH003), standard rabbit chow containing both 0.5% cholesterol and 1% ARH004 (ARH004), standard rabbit chow containing both 0.5% cholesterol and 10 mg/kg Pure compound (P).
(§7) Except standard rabbit chow, others groups were given standard rabbit chow containing 0.5% cholesterol for 4 weeks. The daily feeding amount for each rabbit was 50 g/kg body weight per day.
(§8) Diets were administered for 8 weeks, after the animals had adjusted to their new environment. At the beginning and end of the 12 weeks study, the rabbits were anesthetized by an intramuscular injection of Zoletil 50 (1 mL/kg) (Virbac Ltd., France), and blood samples were harvested. Finally, the aortas (from aortic arch to the bifurcation of the iliac arteries) and whole livers were collected from the rabbits after they were sacrificed for further histopathological analyses.
The animals were fasted overnight before blood drawing. […]

[9] = Body weight in hypercholesterolemic rabbit model; format: in vivo; details: rabbits on chow with 0.5% cholesterol plus 1% extract, 10 mg/kg pure compound or 10 mg/kg lovastatin; during the intervention
Protocol: as §6, §7, §8

Q: With `C=C(CC[C@@H](C)[C@H]1CC[C@H]2C3=C(C(=O)C[C@]12C)[C@@]1(C)CC[C@H](O)[C@](C)(O)C1CC3O)C(C)C(=O)O` (stereo partly shown) [antcin K, 3a,4b,7b-tri-hydroxy4a-methylergosta-8,24(28)-dien-11-on-26-oic acid] as the compound, how does the “migration of RAW264.7 macrophages to palm acid oil-treated vascular endothelial cells” value (RAW264.7 macrophages) read?
A: Its value is “enhanced”.

Q: What about the “expression of CD36 in palm oil-treated vascular endothelial cells” value (CD36) of the same compound?
A: The value was “decreased”.

Q: What about the “expression of VCAM-1 in palm acid oil-treated vascular endothelial cells” value (VCAM-1) of the same compound?
A: The value was “significantly decreased”.

Q: What about the “expression of IL-1β of RAW264.7 macrophage cells” value (IL-1β [1]) of the same compound?
A: Its value is 189.2 pg/mL.

Q: And the “expression of TNF-α of RAW264.7 macrophages” value (TNF-α [2])?
A: The value was 690.7 pg/mL.

Q: And the “lipid deposition in palm acid oil-treated vascular endothelial cells” value [3]?
A: The value was “decreased”.

Q: And the “cell viability of vascular endothelial cells” value ([4]; 10 μg/mL with 0.75 mM palm acid oil)?
A: The value was 71.5%.

Q: And the “cell viability of vascular endothelial cells” value ([4]; 20 μg/mL with 0.75 mM palm acid oil)?
A: The value was 84.6%.

Q: And the “cell viability of vascular endothelial cells” value ([4]; 50 μg/mL with 0.75 mM palm acid oil)?
A: The value was 109.2%.

Q: And the “change of cell viability of vascular endothelial cells” value ([4]; 10, 20 and 50 μg/mL without palm acid oil damage)?
A: The value was “not very obvious”.

Q: What about the IC50 ([4]; Mus musculus, SVEC4-10, antcin K treatment 0-50 μg/mL, MTT) of the same compound?
A: Its IC50 is > 50 mg/L.

Q: What about the “free radicals scavenging efficiency (DPPH)” value ([5]; 20 μg/mL) of the same compound?
A: The value was 96.82%.

Q: And the “free radicals scavenging efficiency (DPPH)” value ([5]; 50 μg/mL)?
A: The value was 98.81%.

Q: What about the “expression of IL-1β of vascular endothelial cells” value (IL-1β [6]; 10 μg/mL with 0.75 mM palm acid oil (86.6 without)) of the same compound?
A: Its value is 70.2 pg/mL.

Q: What about the “expression of IL-1β of vascular endothelial cells” value (IL-1β [6]; 20 μg/mL with 0.75 mM palm acid oil (86.6 without)) of the same compound?
A: The value was 69.3 pg/mL.

Q: And the “expression of IL-1β of vascular endothelial cells” value (IL-1β [6]; 50 μg/mL with 0.75 mM palm acid oil (86.6 without))?
A: The value was 71.5 pg/mL.

Q: What about the “expression of KLF4 in palm acid oil-treated vascular endothelial cells” value (KLF4) of the same compound?
A: Its value is “significantly increased”.

Q: What about the “expression of TNF-α of vascular endothelial cells” value (TNF-α [7]; 10 μg/mL with 0.75 mM palm acid oil (285.5 without)) of the same compound?
A: Its value is 178.8 pg/mL.

Q: And the “expression of TNF-α of vascular endothelial cells” value (TNF-α [7]; 20 μg/mL with 0.75 mM palm acid oil (285.5 without))?
A: Its value is 180.3 pg/mL.

Q: What about the “expression of TNF-α of vascular endothelial cells” value (TNF-α [7]; 50 μg/mL with 0.75 mM palm acid oil (285.5 without)) of the same compound?
A: Its value is 181.0 pg/mL.

Q: With `CC[C@H](C)C(=O)O[C@H]1C[C@@H](C)C=C2C=C[C@H](C)[C@H](CC[C@@H]3C[C@@H](O)CC(=O)O3)[C@H]21` [lovastatin] as the compound, how does the “serum total cholesterol levels” value [8] read?
A: Its value is “higher”.

Q: What about the body weight gains [9] of the same compound?
A: The body weight gains was “did not affect”.
